For test [1], the target named is MAP kinase-activated protein kinase 3 (Homo sapiens) (UniProt Q16644). The test is described as follows: MAPKAP-K3 (h) Millipore kinase activity assay. The note with it: Compound concentration 1.0 uM.
Test [2] deals with Serine/threonine-protein kinase NLK (Homo sapiens) (UniProt Q9UBE8). The test is described as follows: NLK (h) Millipore kinase activity assay. Particulars: Compound concentration 1.0 uM.
Test [3] addresses Proto-oncogene tyrosine-protein kinase Src (Homo sapiens) (UniProt P12931). The test is described as follows: cSRC (h) Millipore kinase activity assay. Particulars: Compound concentration 1.0 uM.
In test [4] the target is Glutamate NMDA receptor (Rattus norvegicus) (UniProt P35439+Q00959+Q00960+Q00961+Q62645+Q8VHN2+Q9R1M7). The note with it: Compound concentration 10.0 uM.
The target of test [5] is BDNF/NT-3 growth factors receptor (Homo sapiens) (UniProt Q16620). The test is described as follows: TrkB (h) Millipore kinase activity assay. Particulars: Compound concentration 1.0 uM.
The target in test [6] is Serine/threonine-protein kinase pim-1 (Homo sapiens) (UniProt P11309). The test is described as follows: Pim-1 (h) Millipore kinase activity assay. The note with it: Compound concentration 1.0 uM.
The target of test [7] is Cyclin-dependent kinase 1/cyclin B (Homo sapiens) (UniProt P06493+P14635+Q8WWL7+O95067). In words: CDK1/cyclinB( h) Millipore kinase activity assay. In kind it is protein-complex assay. The note with it: Compound concentration 1.0 uM.
For test [8], the target named is Endothelin-1 receptor (Homo sapiens) (UniProt P25101). The note with it: Compound concentration 10.0 uM.
Test [9] concerns the target Death-associated protein kinase 1 (Homo sapiens) (UniProt P53355). In words: DAPK1 (h) Millipore kinase activity assay. Particulars: Compound concentration 1.0 uM.
Test [10] has as its target Tyrosine-protein kinase Fer (Homo sapiens) (UniProt P16591). The test is described as follows: Fer (h) Millipore kinase activity assay. Particulars: Compound concentration 1.0 uM.
Test [11] has as its target Ephrin type-A receptor 8 (Homo sapiens) (UniProt P29322). In words: EphA8 (h) Millipore kinase activity assay. Particulars: Compound concentration 1.0 uM.
The target of test [12] is Serine/threonine-protein kinase 4 (Homo sapiens) (UniProt Q13043). In words: MST1 (h) Millipore kinase activity assay. The note with it: Compound concentration 1.0 uM.
Test [13] deals with PAS domain-containing serine/threonine-protein kinase (Homo sapiens) (UniProt Q96RG2). In words: PASK (h) Millipore kinase activity assay. Particulars: Compound concentration 1.0 uM.
For test [14], the target named is Tyrosine-protein kinase BTK (Homo sapiens) (UniProt Q06187). In words: BTK (h) Millipore kinase activity assay. Particulars: Compound concentration 1.0 uM.
For test [15], the target named is Substance-P receptor (Homo sapiens) (UniProt P25103). In words: Inhibition of Tachykinin NK1 at 10 µM in the Eurofins-Panlabs radioligand binding assay (Eurofins_assay_255520). Also on record: ligand concentration 0.8 nM. Particulars: Compound concentration 10.0 uM.
In test [16] the target is CDK9/cyclin T1 (Homo sapiens) (UniProt O60563+P50750). In words: CDK9/cyclin T1 (h) Millipore kinase activity assay. The format is protein-complex assay. The note with it: Compound concentration 1.0 uM.
For test [17], the target named is Insulin receptor-related protein (Homo sapiens) (UniProt P14616). The note with it: Compound concentration 1000.0 nM.
The target in test [18] is Mitogen-activated protein kinase kinase kinase 15 (Homo sapiens) (UniProt Q6ZN16). The note with it: Compound concentration 1000.0 nM.
Test [19] concerns the target Serine/threonine-protein kinase DCLK1 (Homo sapiens) (UniProt O15075). The note with it: Compound concentration 1000.0 nM.
Test [20] addresses SRSF protein kinase 2 (Homo sapiens) (UniProt P78362). Particulars: Compound concentration 1000.0 nM.
In test [21] the target is Mitogen-activated protein kinase 4 (Homo sapiens) (UniProt P31152). The note with it: Compound concentration 1000.0 nM.
Test [22] has as its target Mitogen-activated protein kinase 15 (Homo sapiens) (UniProt Q8TD08). The note with it: Compound concentration 1000.0 nM.
The subject of test [23] is Tyrosine-protein kinase ABL1 (Homo sapiens), P00519 [T315I]. The note with it: Compound concentration 1000.0 nM.
Test [24] concerns the target Rho-associated protein kinase 2 (Homo sapiens) (UniProt O75116). The note with it: Compound concentration 1000.0 nM.
Test [25] deals with Activin receptor type-2A (Homo sapiens) (UniProt P27037). Particulars: Compound concentration 1000.0 nM.
Test [26] deals with Glycogen synthase kinase-3 alpha (Homo sapiens) (UniProt P49840). Particulars: Compound concentration 1000.0 nM.
Test [27] relates to Phosphatidylinositol 4,5-bisphosphate 3-kinase catalytic subunit alpha isoform (Homo sapiens), P42336 [H1047Y]. Particulars: Compound concentration 1000.0 nM.
In test [28] the target is Serine/threonine-protein kinase PAK 6 (Homo sapiens) (UniProt Q9NQU5). The note with it: Compound concentration 1000.0 nM.
The species named for a further test is Rattus norvegicus. Particulars: Compound concentration 10.0 uM.
The test system of test [29] is Receptor-type tyrosine-protein kinase FLT3 (Homo sapiens), P36888 [K663Q]. The note with it: Compound concentration 1000.0 nM.
The target in test [30] is Calcium/calmodulin-dependent protein kinase type II subunit alpha (Homo sapiens) (UniProt Q9UQM7). Particulars: Compound concentration 1000.0 nM.
The target of test [31] is Death-associated protein kinase 1 (Homo sapiens) (UniProt P53355). The note with it: Compound concentration 1000.0 nM.
The target of test [32] is Serine/threonine-protein kinase WNK4 (Homo sapiens) (UniProt Q96J92). Particulars: Compound concentration 1000.0 nM.
Test [33] concerns the target LIM domain kinase 1 (Homo sapiens) (UniProt P53667). Particulars: Compound concentration 1000.0 nM.
Test [34] concerns the target Serine/threonine-protein kinase PAK 5 (Homo sapiens) (UniProt Q9P286). Particulars: Compound concentration 1000.0 nM.
In test [35] the target is Dual specificity protein kinase CLK4 (Homo sapiens) (UniProt Q9HAZ1). Particulars: Compound concentration 1000.0 nM.
Test [36] concerns the target Transient receptor potential cation channel subfamily M member 6 (Homo sapiens) (UniProt Q9BX84). Particulars: Compound concentration 1000.0 nM.
The target of test [37] is Tyrosine-protein kinase Fes/Fps (Homo sapiens) (UniProt P07332). The note with it: Compound concentration 1000.0 nM.
Test [38] concerns the target Serine/threonine-protein kinase pim-3 (Homo sapiens) (UniProt Q86V86). Particulars: Compound concentration 1000.0 nM.
In test [39] the target is Serine/threonine-protein kinase SBK1 (Homo sapiens) (UniProt Q52WX2). Particulars: Compound concentration 1000.0 nM.
Test [40] concerns the target Tyrosine-protein kinase Blk (Homo sapiens) (UniProt P51451). Particulars: Compound concentration 1000.0 nM.
In test [41] the target is Hepatocyte growth factor receptor (Homo sapiens, UniProt P08581). The note with it: Compound concentration 1000.0 nM.
Test [42] concerns the target Mitogen-activated protein kinase 8 (Homo sapiens) (UniProt P45983). Particulars: Compound concentration 1000.0 nM.
Test [43] concerns the target Mitogen-activated protein kinase kinase kinase kinase 4 (Homo sapiens) (UniProt O95819). Particulars: Compound concentration 1000.0 nM.
Test [44] has as its target Tyrosine-protein kinase ABL1 (Homo sapiens) (UniProt P00519). The note with it: Compound concentration 1000.0 nM.

Data on two molecules can be found in ChEMBL document CHEMBL4507263, “Data for DCP probe BAY-474” (2021).

Chain of Death-associated protein kinase 1 (Homo sapiens) (P53355 whole entry, looked up): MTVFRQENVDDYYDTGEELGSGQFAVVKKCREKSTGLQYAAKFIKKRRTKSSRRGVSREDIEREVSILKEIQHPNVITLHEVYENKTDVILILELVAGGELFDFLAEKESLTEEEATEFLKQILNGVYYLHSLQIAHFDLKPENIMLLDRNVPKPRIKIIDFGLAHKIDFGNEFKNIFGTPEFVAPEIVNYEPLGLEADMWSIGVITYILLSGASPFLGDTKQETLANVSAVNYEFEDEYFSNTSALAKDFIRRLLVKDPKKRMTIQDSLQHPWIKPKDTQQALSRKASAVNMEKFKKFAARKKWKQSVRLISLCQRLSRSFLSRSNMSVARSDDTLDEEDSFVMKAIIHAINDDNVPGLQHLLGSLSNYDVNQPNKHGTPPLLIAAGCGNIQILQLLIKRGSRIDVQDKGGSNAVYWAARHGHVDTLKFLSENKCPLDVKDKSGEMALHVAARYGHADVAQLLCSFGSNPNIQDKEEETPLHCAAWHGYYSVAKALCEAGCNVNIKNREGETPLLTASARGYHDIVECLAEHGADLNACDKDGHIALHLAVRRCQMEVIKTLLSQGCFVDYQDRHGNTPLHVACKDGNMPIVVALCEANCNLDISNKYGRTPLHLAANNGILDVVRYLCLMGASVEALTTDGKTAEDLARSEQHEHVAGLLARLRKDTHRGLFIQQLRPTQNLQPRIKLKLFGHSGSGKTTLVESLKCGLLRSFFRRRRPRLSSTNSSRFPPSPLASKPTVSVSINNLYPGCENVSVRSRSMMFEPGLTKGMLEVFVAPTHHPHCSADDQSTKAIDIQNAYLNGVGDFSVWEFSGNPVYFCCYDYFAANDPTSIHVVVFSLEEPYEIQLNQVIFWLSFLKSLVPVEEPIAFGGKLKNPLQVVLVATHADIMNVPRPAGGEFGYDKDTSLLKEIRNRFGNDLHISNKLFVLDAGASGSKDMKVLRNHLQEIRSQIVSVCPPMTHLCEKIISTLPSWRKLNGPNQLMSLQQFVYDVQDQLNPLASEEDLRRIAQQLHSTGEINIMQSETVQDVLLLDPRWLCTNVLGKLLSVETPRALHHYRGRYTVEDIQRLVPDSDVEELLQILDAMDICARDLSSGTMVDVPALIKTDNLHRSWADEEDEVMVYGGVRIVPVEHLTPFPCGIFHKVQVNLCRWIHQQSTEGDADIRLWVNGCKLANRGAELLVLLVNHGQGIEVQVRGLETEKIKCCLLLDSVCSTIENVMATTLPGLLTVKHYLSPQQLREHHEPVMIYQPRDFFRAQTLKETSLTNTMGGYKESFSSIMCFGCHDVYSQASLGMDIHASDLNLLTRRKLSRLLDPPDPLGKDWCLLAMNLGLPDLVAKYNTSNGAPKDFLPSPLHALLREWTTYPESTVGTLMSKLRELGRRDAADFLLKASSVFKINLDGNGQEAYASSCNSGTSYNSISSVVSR
Chain of Tyrosine-protein kinase BTK (Homo sapiens) (Q06187 whole entry): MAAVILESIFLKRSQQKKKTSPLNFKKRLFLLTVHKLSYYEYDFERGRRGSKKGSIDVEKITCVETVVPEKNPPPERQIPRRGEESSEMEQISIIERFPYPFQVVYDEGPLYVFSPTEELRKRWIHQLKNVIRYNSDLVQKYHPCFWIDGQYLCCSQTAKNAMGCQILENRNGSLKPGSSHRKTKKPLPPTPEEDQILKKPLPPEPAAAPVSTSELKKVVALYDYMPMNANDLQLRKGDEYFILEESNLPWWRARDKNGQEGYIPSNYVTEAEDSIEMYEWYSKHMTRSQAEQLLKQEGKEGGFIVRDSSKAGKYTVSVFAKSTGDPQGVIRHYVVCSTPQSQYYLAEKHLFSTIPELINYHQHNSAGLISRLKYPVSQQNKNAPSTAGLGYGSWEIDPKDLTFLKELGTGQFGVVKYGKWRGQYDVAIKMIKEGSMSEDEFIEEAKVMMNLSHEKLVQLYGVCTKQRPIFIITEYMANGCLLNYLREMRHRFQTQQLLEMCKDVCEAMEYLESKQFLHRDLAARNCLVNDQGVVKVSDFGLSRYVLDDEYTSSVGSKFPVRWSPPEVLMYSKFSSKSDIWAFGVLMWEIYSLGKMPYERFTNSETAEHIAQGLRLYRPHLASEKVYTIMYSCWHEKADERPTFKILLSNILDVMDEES
Chain of PAS domain-containing serine/threonine-protein kinase (Homo sapiens) (Q96RG2 whole entry, the tested form may be a part): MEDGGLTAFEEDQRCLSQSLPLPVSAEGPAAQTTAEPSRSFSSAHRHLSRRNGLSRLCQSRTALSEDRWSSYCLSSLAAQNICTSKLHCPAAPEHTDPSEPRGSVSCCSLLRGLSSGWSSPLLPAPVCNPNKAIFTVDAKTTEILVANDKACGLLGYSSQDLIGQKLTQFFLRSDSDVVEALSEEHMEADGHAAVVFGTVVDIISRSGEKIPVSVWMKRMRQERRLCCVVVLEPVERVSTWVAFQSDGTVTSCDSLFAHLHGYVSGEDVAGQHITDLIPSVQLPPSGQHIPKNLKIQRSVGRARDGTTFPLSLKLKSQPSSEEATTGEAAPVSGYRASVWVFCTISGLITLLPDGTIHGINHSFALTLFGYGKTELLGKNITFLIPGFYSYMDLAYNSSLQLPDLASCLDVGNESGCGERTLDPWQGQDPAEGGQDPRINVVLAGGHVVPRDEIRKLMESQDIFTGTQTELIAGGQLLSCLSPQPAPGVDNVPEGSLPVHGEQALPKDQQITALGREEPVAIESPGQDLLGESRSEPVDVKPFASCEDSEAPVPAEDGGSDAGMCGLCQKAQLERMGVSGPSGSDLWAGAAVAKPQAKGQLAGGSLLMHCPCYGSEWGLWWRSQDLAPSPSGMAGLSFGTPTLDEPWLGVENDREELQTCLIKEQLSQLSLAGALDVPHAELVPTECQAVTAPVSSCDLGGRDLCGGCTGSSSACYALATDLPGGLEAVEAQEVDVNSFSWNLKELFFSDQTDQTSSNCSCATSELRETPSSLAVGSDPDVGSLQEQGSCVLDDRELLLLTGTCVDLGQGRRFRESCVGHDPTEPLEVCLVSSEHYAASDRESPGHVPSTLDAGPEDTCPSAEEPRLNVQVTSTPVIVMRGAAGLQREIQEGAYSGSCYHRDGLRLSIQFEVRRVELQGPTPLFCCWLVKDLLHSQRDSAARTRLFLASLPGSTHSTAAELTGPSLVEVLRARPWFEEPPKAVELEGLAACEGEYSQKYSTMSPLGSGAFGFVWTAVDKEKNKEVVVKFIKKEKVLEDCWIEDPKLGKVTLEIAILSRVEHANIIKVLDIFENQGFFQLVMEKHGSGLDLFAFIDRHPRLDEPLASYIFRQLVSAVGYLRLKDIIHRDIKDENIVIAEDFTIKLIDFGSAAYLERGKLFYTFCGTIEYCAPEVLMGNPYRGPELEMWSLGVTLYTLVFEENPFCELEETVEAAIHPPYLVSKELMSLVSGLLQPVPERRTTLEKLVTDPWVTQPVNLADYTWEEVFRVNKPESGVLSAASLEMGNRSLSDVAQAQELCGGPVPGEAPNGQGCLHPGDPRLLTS
Chain of Serine/threonine-protein kinase NLK (Homo sapiens) (Q9UBE8 whole entry): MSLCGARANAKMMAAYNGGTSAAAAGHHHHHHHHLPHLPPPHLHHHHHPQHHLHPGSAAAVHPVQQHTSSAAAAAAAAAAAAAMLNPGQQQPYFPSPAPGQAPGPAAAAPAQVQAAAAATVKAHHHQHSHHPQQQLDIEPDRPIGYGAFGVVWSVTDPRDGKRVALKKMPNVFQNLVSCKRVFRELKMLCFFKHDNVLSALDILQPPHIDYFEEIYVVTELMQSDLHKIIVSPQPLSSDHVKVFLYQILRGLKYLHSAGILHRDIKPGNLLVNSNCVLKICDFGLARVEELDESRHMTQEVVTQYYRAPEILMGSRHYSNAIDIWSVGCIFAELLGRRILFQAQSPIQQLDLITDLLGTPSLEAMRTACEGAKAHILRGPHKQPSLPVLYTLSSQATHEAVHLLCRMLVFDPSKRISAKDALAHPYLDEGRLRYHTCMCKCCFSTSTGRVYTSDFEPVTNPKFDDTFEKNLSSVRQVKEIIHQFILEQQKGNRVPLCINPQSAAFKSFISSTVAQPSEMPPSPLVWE
Chain of Calcium/calmodulin-dependent protein kinase type II subunit alpha (Homo sapiens) (Q9UQM7 whole entry): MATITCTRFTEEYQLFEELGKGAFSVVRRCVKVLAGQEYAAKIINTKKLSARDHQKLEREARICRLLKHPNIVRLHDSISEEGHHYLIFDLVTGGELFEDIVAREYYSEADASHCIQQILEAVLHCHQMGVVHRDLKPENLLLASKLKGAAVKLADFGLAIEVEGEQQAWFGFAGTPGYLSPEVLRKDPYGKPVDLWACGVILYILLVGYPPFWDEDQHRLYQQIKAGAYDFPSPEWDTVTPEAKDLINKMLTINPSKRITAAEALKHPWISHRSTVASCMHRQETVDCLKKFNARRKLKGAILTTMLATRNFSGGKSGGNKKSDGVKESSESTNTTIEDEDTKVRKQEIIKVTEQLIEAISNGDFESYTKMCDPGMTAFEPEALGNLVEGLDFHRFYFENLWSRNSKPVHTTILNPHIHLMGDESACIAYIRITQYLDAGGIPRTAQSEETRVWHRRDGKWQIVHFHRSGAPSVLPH
Chain of Activin receptor type-2A (Homo sapiens) (P27037 whole entry): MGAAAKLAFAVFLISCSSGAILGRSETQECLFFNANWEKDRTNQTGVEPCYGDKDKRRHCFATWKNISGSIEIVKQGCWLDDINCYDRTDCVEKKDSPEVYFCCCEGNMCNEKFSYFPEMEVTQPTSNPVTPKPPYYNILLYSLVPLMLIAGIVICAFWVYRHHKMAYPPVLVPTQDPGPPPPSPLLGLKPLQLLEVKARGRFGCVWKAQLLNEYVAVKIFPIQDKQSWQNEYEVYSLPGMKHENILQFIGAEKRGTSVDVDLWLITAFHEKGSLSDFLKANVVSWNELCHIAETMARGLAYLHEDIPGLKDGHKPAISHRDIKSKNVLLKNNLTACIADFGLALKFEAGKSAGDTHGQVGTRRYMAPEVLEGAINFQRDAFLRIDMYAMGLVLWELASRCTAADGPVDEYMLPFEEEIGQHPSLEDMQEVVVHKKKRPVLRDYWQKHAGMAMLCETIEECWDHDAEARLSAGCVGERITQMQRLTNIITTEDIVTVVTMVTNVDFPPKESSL

Turning to `CC1=C(C#N)C(c2ccc3[nH]nc(C)c3c2)C(C#N)=C(C)N1` [BAY-474], the inhibition in test [1] was -5%; in [2], -4%; in test [3], 8%; in test [4] it was 9%; in test [5] it was -2%; in [6], -3%. Besides, the inhibition in [7] was 16%; in test [8] it was 7%; in [9] it was 0%; in test [10], 22%; in test [11] it was -1%; in test [12], 19%. In addition, the inhibition in [13] was 19%; in [14] it was -8%; in [15] it was -4%; in [16], -10%.

With `CC1=C(C#N)[C@@H](c2ccc3[nH]nc(C)c3c2)C(C#N)=C(c2ccc(Cl)cc2)N1` [BAY-827], the residual activity is 100% in test [17]; 100% in test [18]; 79.2% in [19]; 100% in test [20]; 89.6% in test [21]; 100% in [22]. Besides, the residual activity in [23] is 100%; in [24] it was 91.9%; in test [25], 100%; in test [26], 100%; in [27], 35.8%; in test [28], 100%. In addition, the residual activity in [29], in [30], in test [31], in test [32], in test [33] and in test [34] was 100% each time. The residual activity in test [35], in [36], in test [37], in test [38], in test [39] and in [40] was 100% each time. The residual activity was 17.2% in [41], 65.2% in [42], 100% in [43] and 52.6% in test [44]. Also, in the test filed under Rattus norvegicus, the inhibition is 69.5%.

In general, inhibition refers to the relative decrease from the control value, in per cent.
